Results as given in the supplement of paper PMC6045584.
± gives the standard deviation of the averaged measurements.

Legend:
AFIMOXIFENE = compound: CC/C(=C(\c1ccc(O)cc1)c1ccc(OCCN(C)C)cc1)c1ccccc1 [AFIMOXIFENE]; assay: surviving fraction relative to DMSO-only wells; higher = less growth inhibition; conditions: exposure time: 5 days
Summary of the method: (§1)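 For each tumour cell line, log-phase cells were put into 384-well plates at 250–500 cells per well, then after 24 hours exposed continuously for five days to inhibitors at 0.5, 1, 5, 10, 50, 100, 500 and 1000 nM. Viability was assessed by CellTiter-Glo luminescence, with surviving fraction expressed relative to the median of DMSO-only wells. Lines were screened three times and retained only if replicate Pearson r exceeded 0.7 and median Z' exceeded 0.3.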

VORINOSTAT = compound: O=C(CCCCCCC(=O)Nc1ccccc1)NO [VORINOSTAT]; assay: as above; conditions: exposure time: 5 days
Summary of the method: as §1

Row | Test System | surviving fraction (AFIMOXIFENE; 0.5 nM) | surviving fraction (AFIMOXIFENE; 1 nM) | surviving fraction (AFIMOXIFENE; 5 nM) | surviving fraction (AFIMOXIFENE; 10 nM) | surviving fraction (AFIMOXIFENE; 50 nM) | surviving fraction (AFIMOXIFENE; 100 nM) | surviving fraction (AFIMOXIFENE; 500 nM) | surviving fraction (AFIMOXIFENE; 1000 nM) | surviving fraction (VORINOSTAT; 0.5 nM) | surviving fraction (VORINOSTAT; 1 nM) | surviving fraction (VORINOSTAT; 5 nM) | surviving fraction (VORINOSTAT; 10 nM) | surviving fraction (VORINOSTAT; 50 nM) | surviving fraction (VORINOSTAT; 100 nM) | surviving fraction (VORINOSTAT; 500 nM) | surviving fraction (VORINOSTAT; 1000 nM)
1 | SCC47 HEADNECK | 1.26 ± 0.02 | 1.2 ± 0.038 | 1.31 ± 0.11 | 1.27 ± 0.13 | 1.31 ± 0.085 | 1.29 ± 0.12 | 1.24 ± 0.047 | 1.2 ± 0.055 | 1.03 ± 0.04 | 1.03 ± 0.077 | 1.12 ± 0.034 | 1.02 ± 0.016 | 1.05 ± 0.023 | 1.1 ± 0.044 | 1.02 ± 0.083 | 0.897 ± 0.028
2 | LM7 BONE | 1.02 ± 0.12 | 1.07 ± 0.039 | 1.06 ± 0.063 | 1.09 ± 0.075 | 1.15 ± 0.092 | 1.09 ± 0.039 | 1.03 ± 0.016 | 0.914 ± 0.058 | 1.01 ± 0.1 | 0.999 ± 0.041 | 1.09 ± 0.059 | 1.03 ± 0.08 | 1.11 ± 0.12 | 1.1 ± 0.04 | 0.934 ± 0.12 | 0.8 ± 0.032
3 | BT549 BREAST | 0.924 ± 0.072 | 1.01 ± 0.1 | 1.01 ± 0.12 | 0.926 ± 0.082 | 0.93 ± 0.046 | 1.04 ± 0.013 | 1.07 ± 0.14 | 0.865 ± 0.052 | 1.12 ± 0.083 | 1.14 ± 0.11 | 1.15 ± 0.029 | 1.22 ± 0.051 | 1.12 ± 0.17 | 1.11 ± 0.068 | 0.773 ± 0.073 | 0.534 ± 0.034
4 | CME SYNOVIAL | 1.26 ± 0.1 | 1.31 ± 0.15 | 1.42 ± 0.13 | 1.46 ± 0.13 | 1.41 ± 0.13 | 1.43 ± 0.1 | 1.28 ± 0.085 | 1.4 ± 0.053 | 1.25 ± 0.12 | 1.15 ± 0.087 | 1.21 ± 0.061 | 0.882 ± 0.044 | 1.28 ± 0.1 | 1.08 ± 0.043 | 0.607 ± 0.089 | 0.383 ± 0.027
5 | 93VU HEADNECK | 1.25 ± 0.11 | 1.2 ± 0.11 | 1.34 ± 0.074 | 1.32 ± 0.075 | 1.27 ± 0.053 | 1.2 ± 0.1 | 1.24 ± 0.12 | 1.08 ± 0.068 | 0.966 ± 0.02 | 1.06 ± 0.045 | 1.09 ± 0.087 | 1.08 ± 0.077 | 1.18 ± 0.093 | 1.1 ± 0.07 | 0.947 ± 0.035 | 0.731 ± 0.13
6 | NY BONE | 1.03 ± 0.041 | 1.026 ± 0.0089 | 1.1 ± 0.023 | 1.08 ± 0.027 | 1.11 ± 0.055 | 1.082 ± 0.006 | 0.972 ± 0.0056 | 0.9223 ± 0.0081 | 0.9877 ± 0.004 | 0.918 ± 0.029 | 0.973 ± 0.023 | 0.98 ± 0.033 | 1.037 ± 0.0042 | 0.916 ± 0.019 | 0.701 ± 0.012 | 0.448 ± 0.016
7 | SUM149 BREAST | 1.12 ± 0.094 | 1.02 ± 0.1 | 1.03 ± 0.078 | 1.03 ± 0.14 | 0.861 ± 0.031 | 0.911 ± 0.076 | 1.01 ± 0.11 | 0.868 ± 0.032 | 1.1 ± 0.12 | 1.03 ± 0.044 | 1.08 ± 0.047 | 0.917 ± 0.038 | 1.06 ± 0.045 | 1.14 ± 0.016 | 0.996 ± 0.066 | 0.71 ± 0.031
8 | SCC90 HEADNECK | 1.14 ± 0.052 | 1.12 ± 0.11 | 1.1 ± 0.045 | 1.19 ± 0.068 | 1.12 ± 0.074 | 1.09 ± 0.059 | 1.11 ± 0.025 | 1.05 ± 0.075 | 1.13 ± 0.3 | 0.999 ± 0.1 | 1.13 ± 0.19 | 1.03 ± 0.1 | 1 ± 0.046 | 0.89 ± 0.089 | 0.689 ± 0.012 | 0.547 ± 0.0096
9 | S68 BREAST | 0.947 ± 0.19 | 0.829 ± 0.24 | 1.08 ± 0.052 | 0.952 ± 0.18 | 1.39 ± 0.13 | 1.21 ± 0.11 | 0.916 ± 0.047 | 0.805 ± 0.065 | 0.723 ± 0.22 | 0.82 ± 0.18 | 0.91 ± 0.38 | 0.998 ± 0.21 | 1.22 ± 0.28 | 1.07 ± 0.17 | 0.73 ± 0.19 | 0.384 ± 0.018
10 | SJSA1 BONE | 1.6 ± 0.021 | 1.74 ± 0.059 | 1.65 ± 0.083 | 1.74 ± 0.087 | 1.78 ± 0.027 | 1.52 ± 0.05 | 1.79 ± 0.059 | 1.27 ± 0.068 | 0.793 ± 0.037 | 0.946 ± 0.057 | 0.844 ± 0.049 | 0.953 ± 0.067 | 0.844 ± 0.021 | 0.973 ± 0.059 | 0.544 ± 0.035 | 0.672 ± 0.03
11 | MCF7 BREAST | 1.02 ± 0.045 | 0.976 ± 0.045 | 0.917 ± 0.036 | 0.928 ± 0.045 | 0.877 ± 0.035 | 0.857 ± 0.037 | 0.834 ± 0.046 | 0.775 ± 0.012 | 0.854 ± 0.026 | 0.839 ± 0.033 | 0.864 ± 0.011 | 0.781 ± 0.026 | 0.977 ± 0.034 | 0.845 ± 0.028 | 0.742 ± 0.0093 | 0.648 ± 0.0092
12 | SUM44 BREAST | 1.17 ± 0.34 | 1.22 ± 0.34 | 1.2 ± 0.26 | 1.2 ± 0.39 | 1.3 ± 0.43 | 1.19 ± 0.36 | 1.13 ± 0.29 | 1.08 ± 0.32 | 0.934 ± 0.025 | 0.954 ± 0.037 | 0.951 ± 0.0099 | 1.01 ± 0.086 | 1.07 ± 0.016 | 0.917 ± 0.038 | 0.418 ± 0.031 | 0.294 ± 0.013
13 | SIHA CERVIX | 1.1 ± 0.029 | 1.07 ± 0.051 | 1.09 ± 0.072 | 1.19 ± 0.031 | 1.15 ± 0.06 | 1.21 ± 0.032 | 1.13 ± 0.062 | 1.09 ± 0.058 | 0.978 ± 0.05 | 0.965 ± 0.018 | 1.07 ± 0.025 | 1.06 ± 0.13 | 1.2 ± 0.032 | 1.17 ± 0.13 | 1.15 ± 0.035 | 1 ± 0.14
14 | KPD BONE | 1.03 ± 0.043 | 1.03 ± 0.022 | 1.14 ± 0.088 | 1.07 ± 0.043 | 1.132 ± 0.011 | 1.1 ± 0.04 | 0.976 ± 0.049 | 0.83 ± 0.035 | 0.943 ± 0.058 | 0.981 ± 0.032 | 1.09 ± 0.068 | 1.02 ± 0.067 | 1.07 ± 0.074 | 0.994 ± 0.083 | 0.907 ± 0.048 | 0.65 ± 0.021
15 | HUO3N1 BONE | 1.06 ± 0.046 | 1.03 ± 0.038 | 1.1 ± 0.065 | 1.09 ± 0.029 | 1.12 ± 0.057 | 1.06 ± 0.043 | 0.932 ± 0.074 | 0.849 ± 0.033 | 1.03 ± 0.016 | 0.975 ± 0.051 | 0.988 ± 0.027 | 0.964 ± 0.032 | 1.012 ± 0.0098 | 1.06 ± 0.081 | 0.987 ± 0.032 | 0.559 ± 0.011
16 | YAMATO SYNOVIAL | 1.22 ± 0.14 | 1.27 ± 0.022 | 1.37 ± 0.14 | 1.4 ± 0.037 | 1.23 ± 0.14 | 1.28 ± 0.096 | 1.23 ± 0.066 | 1.31 ± 0.14 | 1.31 ± 0.099 | 0.905 ± 0.031 | 1.19 ± 0.027 | 0.742 ± 0.072 | 1.28 ± 0.068 | 1.16 ± 0.016 | 0.82 ± 0.026 | 0.533 ± 0.038
17 | ASKA SYNOVIAL | 1.11 ± 0.056 | 1.18 ± 0.097 | 1.18 ± 0.096 | 1.23 ± 0.031 | 1.18 ± 0.029 | 1.17 ± 0.069 | 1.04 ± 0.1 | 1.14 ± 0.064 | 1.01 ± 0.033 | 1.03 ± 0.038 | 1.08 ± 0.045 | 0.951 ± 0.022 | 1.05 ± 0.015 | 1.01 ± 0.018 | 0.724 ± 0.024 | 0.525 ± 0.028
18 | MDAMB436 BREAST | 0.962 ± 0.085 | 0.99 ± 0.11 | 0.965 ± 0.087 | 1.03 ± 0.21 | 1.03 ± 0.11 | 1.08 ± 0.13 | 1.01 ± 0.066 | 1 ± 0.063 | 0.83 ± 0.045 | 0.905 ± 0.045 | 0.854 ± 0.056 | 0.911 ± 0.086 | 0.937 ± 0.081 | 0.835 ± 0.055 | 0.766 ± 0.072 | 0.582 ± 0.066
19 | A549 LUNG | 1.07 ± 0.021 | 1.065 ± 0.0068 | 1.06 ± 0.022 | 1.08 ± 0.013 | 1.05 ± 0.023 | 1.1 ± 0.03 | 1.09 ± 0.022 | 1.11 ± 0.032 | 0.961 ± 0.026 | 0.9313 ± 0.009 | 0.923 ± 0.062 | 0.919 ± 0.042 | 1.04 ± 0.019 | 1.02 ± 0.061 | 1.18 ± 0.027 | 1.116 ± 0.006
20 | PCI30 HEADNECK | 1.09 ± 0.017 | 1.07 ± 0.062 | 1.07 ± 0.06 | 1.06 ± 0.023 | 1.12 ± 0.045 | 1.05 ± 0.022 | 0.99 ± 0.091 | 1.02 ± 0.032 | 0.958 ± 0.064 | 0.982 ± 0.079 | 0.933 ± 0.087 | 1.01 ± 0.039 | 1.07 ± 0.053 | 0.962 ± 0.066 | 0.88 ± 0.064 | 0.735 ± 0.059
